“And” between values parts separate entries of the source, which are not always exact repeats. Equal values may be shown once. Numbers after ± are expanded uncertainties.

We go through 14 compounds from the NIST ThermoML archive (doi:10.1016/j.jct.2005.07.003).

The nature of this series: activity coefficient (dimensionless); of the first substance listed, at infinite dilution; xn = mol fraction of the nth substance listed. The settings on record: 101 kPa, Liquid, Chromatography, x1 = 0.

Regarding `C=CCCCCC` [1-heptene] + CCCCCCCC[n+]1ccn(C)c1.COCCOCCOS(=O)(=O)[O-], the activity coefficient is 10.3 and 10.8 (288.15 K); 10.5 and 10.1 (298.15 K); 8.51 and 9.33 (313.15 K).

Consider `C#CCCCCC` [1-heptyne] + CCCCCCCC[n+]1ccn(C)c1.COCCOCCOS(=O)(=O)[O-], for which the activity coefficient is 5.69 and 5.38 (288.15 K); 4.92 and 5.11 (298.15 K); 4.7 and 4.67 (313.15 K).

With `c1ccccc1` [benzene] + CCCCCCCC[n+]1ccn(C)c1.COCCOCCOS(=O)(=O)[O-], the activity coefficient is, setting by setting: (288.15 K) 1.33 ± 0.14; (298.15 K) 1.33 and 1.46; (313.15 K) 1.37 and 1.35.

As to `C1CCCCCC1` [cycloheptane] + CCCCCCCC[n+]1ccn(C)c1.COCCOCCOS(=O)(=O)[O-], the activity coefficient was 9.65 and 10.1 (288.15 K); 9.02 and 8.83 (298.15 K); 7.53 and 7.45 (313.15 K).

Regarding `C1CCCCC1` [cyclohexane] + CCCCCCCC[n+]1ccn(C)c1.COCCOCCOS(=O)(=O)[O-], the activity coefficient by setting is: (288.15 K) 8.52 and 8.34; (298.15 K) 7.86 ± 0.83; (313.15 K) 6.83 and 6.79.

For the compound `C1CCCCCCC1` [cyclooctane] + CCCCCCCC[n+]1ccn(C)c1.COCCOCCOS(=O)(=O)[O-], the activity coefficient was 11.2 and 10.3 (288.15 K); 8.74 and 8.65 (313.15 K).

For `C1CCCC1` [cyclopentane] + CCCCCCCC[n+]1ccn(C)c1.COCCOCCOS(=O)(=O)[O-], the activity coefficient (288.15 K) is 6.4 and 6.14; the activity coefficient (298.15 K) was 5.1 and 5.86; the activity coefficient (313.15 K) was 5.24 and 5.16.

`CCCCCCC` [heptane] + CCCCCCCC[n+]1ccn(C)c1.COCCOCCOS(=O)(=O)[O-]: the activity coefficient by setting is: (288.15 K) 17.9 and 17.4; (298.15 K) 16.4 and 16; (313.15 K) 13.5 and 13.3.

In the case of `C=CCCCC` [hex-1-ene] + CCCCCCCC[n+]1ccn(C)c1.COCCOCCOS(=O)(=O)[O-], the activity coefficient by setting is: (288.15 K) 8.61 and 8.47; (298.15 K) 8.14 and 8.33; (313.15 K) 7.47 and 7.74.

As for `CCCCCC` [hexane] + CCCCCCCC[n+]1ccn(C)c1.COCCOCCOS(=O)(=O)[O-], the activity coefficient runs as follows: (288.15 K) 14 ± 1.5; (298.15 K) 12.8 and 12.9; (313.15 K) 11.9 and 11.8.

For `CO` [methanol] + CCCCCCCC[n+]1ccn(C)c1.COCCOCCOS(=O)(=O)[O-], the activity coefficient is, setting by setting: (288.15 K) 0.37 and 0.44; (298.15 K) 0.38 ± 0.05; (313.15 K) 0.36 and 0.38.

`C=CCCCCCC` [oct-1-ene] + CCCCCCCC[n+]1ccn(C)c1.COCCOCCOS(=O)(=O)[O-]: the activity coefficient (288.15 K) is 13.7 and 14; the activity coefficient (298.15 K) is 13.1 and 13.2; the activity coefficient (313.15 K) was 12 and 11.4.

Take `CCCCCCCC` [octane] + CCCCCCCC[n+]1ccn(C)c1.COCCOCCOS(=O)(=O)[O-]: the activity coefficient was 22.6 and 22.2 (288.15 K); 21.1 and 19.7 (298.15 K); 16.4 ± 1.7 (313.15 K).

Consider `CCCCC` [pentane] + CCCCCCCC[n+]1ccn(C)c1.COCCOCCOS(=O)(=O)[O-], for which the activity coefficient is 12.6 and 11.6 (288.15 K); 10.6 and 10.3 (298.15 K); 10 and 9.5 (313.15 K).
